Test results published in patent publication US20180246095A1, “COMPOSITIONS AND METHODS FOR DIAGNOSING AND TREATING LYME DISEASE” (priority 2015, published 2018).

System: B. burgdorferi B31
Assay: RNA-Seq gene expression profile of B. burgdorferi persisters that survived antibiotic treatment, compared with drug free control
Format: cell-based, Borrelia burgdorferi
Procedure: RNA Sequencing (RNA-Seq) was performed to determine the gene expression profile of B. burgdorferi persisters that survived antibiotic treatment using next generation sequencing to shed light on the mechanisms of B. burgdorferi persistence. B. burgdorferi B31 cultures were grown for 5 days to 1×10^7 spirochetes/ml in BSK-H medium followed by treatment with 50 μg/ml doxycycline or 50 μg/ml amoxicillin for 6 days. Triplicate biological samples were used for each group. The total RNA was extracted and ribosomal RNA was removed prior to preparation of cDNA libraries for Illumina sequencing. […] The RNA-Seq data was analyzed by BLAST analysis and mapped to KEGG pathways.

## CC1(C)S[C@@H]2[C@H](NC(=O)[C@H](N)c3ccc(O)cc3)C(=O)N2[C@H]1C(=O)O [Amo]
Gene BB_U05, PF-32 protein
  Expression BB_U05: 0
Gene BB_U06, plasmid partition protein
  Expression BB_U06: 0
Gene BB_U07, protein BBC01
  Expression BB_U07: 0
Gene BB_U08, SUA5 subfamily protein
  Expression BB_U08: 0
Gene BB_U09, TM2 family protein
  Expression BB_U09: 0
Gene BB_U10, protein BBC01
  Expression BB_U10: 0
Gene BB_U11, Sua5/YciO/YrdC/YwlC family protein
  Expression BB_U11: 0
Gene BB_t19, Ser tRNA
  Expression BB_t19: 7
Gene BB_t26, Arg tRNA
  Expression BB_t26: 0
Gene BB_t27, Leu tRNA
  Expression BB_t27: 2
Gene bdrO BB_L35, protein BdrO
  Expression BB_L35: 0
Gene bdrQ BB_N34, BdrQ
  Expression BB_N34: 1
Gene bdrW BB_Q34, protein BdrW protein
  Expression BB_Q34: 1
Gene blyA BB_L23, holin protein
  Expression BB_L23: 0
Gene blyB BB_L24, holin protein
  Expression BB_L24: 0
Gene bppA BB_L36, protein BppA
  Expression BB_L36: 0
Gene bppB BB_L37, protein BppB
  Expression BB_L37: 1
Gene erpX BB_Q47, protein ErpX
  Expression BB_Q47: 0
Gene mlpH BB_L28, lipoprotein
  Expression BB_L28: 1
Gene tRNA-Arg-3 BB_t16, Arg tRNA
  Expression BB_t16: 3
Gene tRNA-His-1 BB_t08, His tRNA
  Expression BB_t08: 0
Gene tRNA-Lys-2 BB_t07, Lys tRNA
  Expression BB_t07: 0
Gene tRNA-Thr-2 BB_t14, Thr tRNA
  Expression BB_t14: 0
Gene tRNA-Trp-1 BB_t03, Trp tRNA
  Expression BB_t03: 1
Gene vraA BB_I16, repetitive antigen A
  Expression BB_I16: 0
glycerol-3-phosphate dehydrogenase
  Expression BB_0368: 95
Glycoprotease family protein
  Expression BB_0185: 50
Hemolysin accessory protein
  Expression blyB BB_R24: 0
Holin protein
  Expression blyA BB_M23: 0
  Expression blyA BB_N23: 50
  Expression blyA BB_P23: 64
  Expression blyA BB_S23: 0
  Expression blyB BB_N24: 0
  Expression blyB BB_S24: 0
Hypothetical protein
  Expression BB_0024: 390
  Expression BB_0029: 114
  Expression BB_0044: 0
  Expression BB_0102: 53
  Expression BB_0162: 401
  Expression BB_0238: 26
  Expression BB_0242: 2
  Expression BB_0252: 497
  Expression BB_0308: 0
  Expression BB_0322: 1
  Expression BB_0331: 5
  Expression BB_0336: 61
  Expression BB_0352: 66
  Expression BB_0367: 176
  Expression BB_0373: 4
  Expression BB_0378: 129
  Expression BB_0428: 627
  Expression BB_0525: 73
  Expression BB_0549: 0
  Expression BB_0576: 140
  Expression BB_0646: 444
  Expression BB_0663: 533
  Expression BB_0673: 15
  Expression BB_0707: 35
  Expression BB_0739: 51
  Expression BB_0799: 2
  Expression BB_0824: 98
  Expression BB_0838a: 4
  Expression BB_A09: 50
  Expression BB_A13: 256
  Expression BB_A61: 133
  Expression BB_D22: 5
  Expression BB_D24: 0
  Expression BB_D0027: 0
  Expression BB_G33: 13
  Expression BB_G34: 439
  Expression BB_H05: 23
  Expression BB_H27: 4
  Expression BB_J13: 5
  Expression BB_J19: 3
  Expression BB_J24: 0
  Expression BB_J46: 17
  Expression BB_J47: 69
  Expression BB_J0056: 13
  Expression BB_L19: 24
  Expression BB_L20: 22
  Expression BB_L25: 13
  Expression BB_L26: 1
  Expression BB_L41: 0
  Expression BB_M12: 0
  Expression BB_M13: 0
  Expression BB_M14: 0
  Expression BB_M15: 0
  Expression BB_M17: 0
  Expression BB_M25: 0
  Expression BB_M30: 0
  Expression BB_M39: 0
  Expression BB_M41: 0
  Expression BB_N20: 68
  Expression BB_N30: 1
  Expression BB_N41: 47
  Expression BB_O02: 0
  Expression BB_O03: 0
  Expression BB_O04: 0
  Expression BB_O05: 0
  Expression BB_O06: 0
  Expression BB_O08: 0
  Expression BB_O09: 0
  Expression BB_O10: 0
  Expression BB_O13: 0
  Expression BB_O29: 46
  Expression BB_O31: 0
  Expression BB_P20: 288
  Expression BB_P21: 291
  Expression BB_P30: 5
  Expression BB_Q27: 36
  Expression BB_Q28: 22
  Expression BB_Q32: 14
  Expression BB_Q33: 147
  Expression BB_Q38: 0
  Expression BB_Q39: 0
  Expression BB_Q54: 1
  Expression BB_Q62: 1
  Expression BB_Q0091: 6
  Expression BB_R20: 73
  Expression BB_R25: 43
  Expression BB_R26: 393
  Expression BB_R29: 252
  Expression BB_R31: 0
  Expression BB_R43: 111
  Expression BB_S06: 0
  Expression BB_S08: 0
  Expression BB_S11: 0
  Expression BB_S12: 0
  Expression BB_S13: 0
  Expression BB_S14: 0
  Expression BB_S18: 0
  Expression BB_S19: 0
  Expression BB_S20: 0
  Expression BB_S21: 11
  Expression BB_S25: 120
  Expression BB_S33: 29
Integral membrane protein
  Expression BB_0316: 36
  Expression BB_0580: 210
lipoprotein
  Expression BB_0193: 15
  Expression BB_0628: 158
  Expression BB_0664: 142
  Expression BB_0832: 753
  Expression BB_B27: 42
  Expression BB_D10: 51
  Expression BB_J36: 90
  Expression mlpF BB_M28: 0
Lipoprotein LA7
  Expression la7 BB_0365: 112
long-chain-fatty-acid CoA ligase
  Expression BB_0593: 24
Membrane protein
  Expression BB_0353: 31
  Expression BB_0759: 1041
Membrane protein insertion efficiency factor
  Expression BB_0143: 1085
Outer membrane protein P13
  Expression BB_0034: 41
Phage portal protein
  Expression BB_M01: 0
Phosphate ABC transporter permease PstC
  Expression pstC BB_0216: 128
phosphofructokinase
  Expression BB_0727: 48
Plasmid partition protein
  Expression BB_H29: 0
proline--tRNA ligase
  Expression proS BB_0402: 87
Protein BdrF
  Expression bdrF BB_S29: 15
Protein BdrV
  Expression bdrV BB_Q42: 1
Protein ErpM
  Expression erpM BB_O40: 0
Protein RepU
  Expression BB_H13: 3
Putative surface protein
  Expression BB_A69: 98
rRNA small subunit methyltransferase A
  Expression ksgA BB_0590: 177
Replicative DNA helicase
  Expression dnaB BB_0111: 144
Response regulator
  Expression BB_0419: 34
Signal peptidase I
  Expression lepB BB_0263: 98
Small conductance mechanosensitive ion channel
  Expression BB_0453: 467
spermidine/putrescine transport system permease
  Expression BB_0641: 70
Superoxide dismutase
  Expression BB_0153: 202
Surface antigen
  Expression BB_I39: 8
tRNA-dihydrouridine synthase A
  Expression BB_0225: 194
Transcription termination factor Rho
  Expression rho BB_0230: 22
Transcriptional regulator
  Expression BB_0025: 272
Translation initiation factor IF-1
  Expression infA BB_0169: 522
uracil-DNA glycosylase
  Expression ung BB_0053: 1626
Uridine kinase
  Expression udk BB_0015: 37
Xylose operon regulatory protein
  Expression BB_0831: 122
